Results published in patent US20240000698A1, “COMPOSITION COMPRISING FERMENTED EXTRACT FROM PINE FOR PREVENTING SKIN WRINKLE, IMPROVING SKIN BARRIER FUNCTION, PREVENTING HAIR LOSS, PROMOTING HAIR GROWTH AND IMPROVING HAIR HEALTH AND METHOD FOR MANUFACTURING THE SAME” (TaedamBio Co., Ltd., priority 2022, published 2024).

Assay: DPPH free radical scavenging activity measurement test
Type: biochemical
Experimental: The free radical scavenging activity measurement test was conducted using 2,2-diphenyl-1-picrylhydrazyl (DPPH) to evaluate the free radical scavenging activity contained in active oxygen, which is one of the antioxidant effects on the fermented pine tree extract obtained by the above method (testing institution: Korea Testing and Research Institute, test number: TNK-2022-000242). The fermented pine extract was prepared at 5, 10, 20, and 30% concentrations using ethanol, and as a positive control material, L-Ascorbic acid was weighed, and was prepared at concentrations of 0.0005, 0.001, 0.0015, and 0.002% using distilled water. Ethanol was used to prepare DPPH at concentrations of 0.2 mM. 100 μL of the preparations for each concentration were dispensed into a 96-well plate, 0.2 mM DPPH and 100 μL of Ethanol were added, and reacted at room temperature for 30 minutes in a light-shielding state, and then absorbance was measured at 517 nm wavelength. The DPPH free radical scavenging activity (%) was calculated using the following formula. Each experimental result was measured three times to calculate the mean and standard deviation, and the confidence interval was set at 95%. [formula] [formula]

## O=C1O[C@H]([C@@H](O)CO)C(O)=C1O [positive control substance, L-Ascorbic acid]
DPPH free radical scavenging
  IC50 (concentration representing 50% activity): 0.0013%
Positive control 0.0015% in distilled water
  DPPH free radical scavenging activity: 57.25%
Positive control 0.002% in distilled water
  DPPH free radical scavenging activity: 77.39%
